In patent US8999942B2, “Polyol modified aminoglycoside-lipid conjugates” (University of Manitoba, priority 2010, dated 2015):

Assays:
S. aureus ATCC 29213 = assay: MIC, broth macrodilution (CLSI), S. aureus ATCC 29213; assay type: cell-based, Staphylococcus aureus
Protocol: (§1) All compounds were tested against American Type Culture Collection (ATCC) reference strains as well as clinical isolates from the Canadian Intensive Care Unit (CAN-ICU) study (Zhanel, et al., 2008). […] Antibacterial activity against Gram-positive and Gram-negative microorganisms was performed via broth macrodilution tests using CLSI methodology (Clinical and Laboratory Standards Institute, 2006). The minimum inhibitory concentration (MIC) in μg/mL of the aminoglycoside-derived amphiphilic polycarbamates and polyethers were determined using established methods (Clinical and Laboratory Standards Institute, 2006) and are shown in Tables 1 and 2, respectively.

[1] = system: methicillin-resistant Staphylococcus aureus (MRSA) ATCC 33592; assay: MIC, broth macrodilution (CLSI), MRSA ATCC 33592; assay type: cell-based; conditions: MRSA, methicillin-resistant S. aureus ATCC 33592
Protocol: as §1

[2] = system: S. epidermidis ATCC 14990; assay: MIC, broth macrodilution (CLSI), S. epidermidis; assay type: cell-based, Staphylococcus epidermidis; conditions: footnote ATCC 1490
Protocol: as §1

[3] = system: methicillin-resistant Staphylococcus epidermidis (MRSE) CAN-ICU 61589; assay: MIC, broth macrodilution (CLSI), MRSE; assay type: cell-based; conditions: methicillin-resistant S. epidermidis, footnote (ATCC 14990)
Protocol: as §1

[4] = system: Streptococcus pneumoniae ATCC 49619; assay: MIC, broth macrodilution (CLSI), S. pneumoniae ATCC 49619; assay type: cell-based
Protocol: as §1

E. coli ATCC 25922 = assay: MIC, broth macrodilution (CLSI), E. coli ATCC 25922; assay type: cell-based
Protocol: as §1

[5] = system: E. coli (Gentamicin-resistant) CAN-ICU 61714; assay: MIC, broth macrodilution (CLSI), gentamicin-resistant E. coli; assay type: cell-based; conditions: footnote ATCC 6174 (gentamicin resistant)
Protocol: as §1

[6] = system: E. coli (Amikacin MIC 32) CAN-ICU 63074; assay: MIC, broth macrodilution (CLSI), E. coli CAN-ICU 63074; assay type: cell-based
Protocol: as §1

[7] = system: Pseudomonas aeruginosa ATCC 27853; assay: MIC, broth macrodilution (CLSI), P. aeruginosa ATCC 27853; assay type: cell-based
Protocol: as §1

[8] = system: P. aeruginosa (Gent-R) CAN-ICU 62308; assay: MIC, broth macrodilution (CLSI), P. aeruginosa CAN-ICU 62308; assay type: cell-based, Pseudomonas aeruginosa
Protocol: as §1

[9] = system: Stenotrophomonas maltophilia (CAN-ICU 62585); assay: MIC, broth macrodilution (CLSI), S. maltophilia; assay type: cell-based; conditions: S. maltophilia, footnote CAN-ICU 62584
Protocol: as §1

[10] = system: Acinetobacter baumanni (CAN-ICU 63169); assay: MIC, broth macrodilution (CLSI), A. baumannii; assay type: cell-based; conditions: A. baumannii CAN-ICU 63169
Protocol: as §1

S. pneumoniae ATCC 13883 = assay: MIC, broth macrodilution (CLSI), S. pneumoniae ATCC 13883; assay type: cell-based
Protocol: as §1

Compound | Minimal Inhibitory Concentration (MIC) (S. aureus ATCC 29213) [µg/mL] | Minimal Inhibitory Concentration (MIC) [1] [µg/mL] | Minimal Inhibitory Concentration (MIC) [2] [µg/mL] | Minimal Inhibitory Concentration (MIC) [3] [µg/mL] | Minimal Inhibitory Concentration (MIC) [4] [µg/mL] | Minimal Inhibitory Concentration (MIC) (E. coli ATCC 25922) [µg/mL] | Minimal Inhibitory Concentration (MIC) [5] [µg/mL] | Minimal Inhibitory Concentration (MIC) [6] [µg/mL] | Minimal Inhibitory Concentration (MIC) [7] [µg/mL] | Minimal Inhibitory Concentration (MIC) [8] [µg/mL] | Minimal Inhibitory Concentration (MIC) [9] [µg/mL] | Minimal Inhibitory Concentration (MIC) [10] [µg/mL] | Minimal Inhibitory Concentration (MIC) (S. pneumoniae ATCC 13883) [µg/mL]
NCCC(OCc1ccc(Cl)cc1)C(=O)NC1CC(N)C(OC2OC(CN)C(OCc3ccc(Cl)cc3)C(OCc3ccc(Cl)cc3)C2OCc2ccc(Cl)cc2)C(OCc2ccc(Cl)cc2)C1OC1OC(COCc2ccc(Cl)cc2)C(OCc2ccc(Cl)cc2)C(N)C1OCc1ccc(Cl)cc1.O=C(O)C(F)(F)F.O=C(O)C(F)(F)F.O=C(O)C(F)(F)F.O=C(O)C(F)(F)F (centres unmarked) [Compound 19] | 128 | 128 | 128 | 64 | 128 | >256 | >256 | 256 | >256 | >256 | >256 | >256 | >256
NCCC(OC(=O)Nc1ccccc1)C(=O)NC1CC(N)C(OC2OC(CN)C(OC(=O)Nc3ccccc3)C(OC(=O)Nc3ccccc3)C2OC(=O)Nc2ccccc2)C(OC(=O)Nc2ccccc2)C1OC1OC(COC(=O)Nc2ccccc2)C(OC(=O)Nc2ccccc2)C(N)C1OC(=O)Nc1ccccc1.O=C(O)C(F)(F)F.O=C(O)C(F)(F)F.O=C(O)C(F)(F)F.O=C(O)C(F)(F)F (centres unmarked) [Compound 8] | 8 | 16 | 2 | 2 | 32 | 256 | 256 | 256 | >256 | 256 | 128 | 256 | 256
NCC1OC(OC2C(N)CC(N)C(OC(=O)Nc3ccc(Cl)cc3)C2OC2OC(COC(=O)Nc3ccc(Cl)cc3)C(OC3OC(CN)C(OC(=O)Nc4ccc(Cl)cc4)C(OC(=O)Nc4ccc(Cl)cc4)C3N)C2OC(=O)Nc2ccc(Cl)cc2)C(N)C(OC(=O)Nc2ccc(Cl)cc2)C1OC(=O)Nc1ccc(Cl)cc1.O=C(O)C(F)(F)F.O=C(O)C(F)(F)F.O=C(O)C(F)(F)F.O=C(O)C(F)(F)F.O=C(O)C(F)(F)F.O=C(O)C(F)(F)F (centres unmarked) [Compound 2] | 64 | 64 | 16 | 32 | 128 | >256 | >256 | 256 | >256 | 256 | 128 | >256 | 256
NCC1OC(OC2C(N)CC(N)C(OC(=O)Nc3ccccc3)C2OC(=O)Nc2ccccc2)C(N)C(OC(=O)Nc2ccccc2)C1OC(=O)Nc1ccccc1.O=C(O)C(F)(F)F.O=C(O)C(F)(F)F.O=C(O)C(F)(F)F.O=C(O)C(F)(F)F (centres unmarked) [Compound 10] | 16 | 16 | 8 | 8 | >256 | 32 | 32 | 32 | 128 | 128 | 64 | 256 | 64
CN(C)c1ccc(NC(=O)OCC2OC(OC3C(OC(=O)Nc4ccc(N(C)C)cc4)C(N)CC(N)C3OC3OC(CN)C(OC(=O)Nc4ccc(N(C)C)cc4)C(OC(=O)Nc4ccc(N(C)C)cc4)C3N)C(OC(=O)Nc3ccc(N(C)C)cc3)C2OC2OC(CN)C(OC(=O)Nc3ccc(N(C)C)cc3)C(OC(=O)Nc3ccc(N(C)C)cc3)C2N)cc1.O=C(O)C(F)(F)F.O=C(O)C(F)(F)F.O=C(O)C(F)(F)F.O=C(O)C(F)(F)F.O=C(O)C(F)(F)F.O=C(O)C(F)(F)F.O=C(O)C(F)(F)F.O=C(O)C(F)(F)F.O=C(O)C(F)(F)F.O=C(O)C(F)(F)F.O=C(O)C(F)(F)F.O=C(O)C(F)(F)F.O=C(O)C(F)(F)F (centres unmarked) [Compound 4] | 16 | 16 | 8 | 8 | 32 | 128 | 128 | 64 | 128 | 128 | 256 | >256 | >256
NCC1OC(OC2C(N)CC(N)C(OCc3ccc(Cl)cc3)C2OC2OC(COCc3ccc(Cl)cc3)C(OC3OC(CN)C(OCc4ccc(Cl)cc4)C(OCc4ccc(Cl)cc4)C3N)C2OCc2ccc(Cl)cc2)C(N)C(OCc2ccc(Cl)cc2)C1OCc1ccc(Cl)cc1.O=C(O)C(F)(F)F.O=C(O)C(F)(F)F.O=C(O)C(F)(F)F.O=C(O)C(F)(F)F.O=C(O)C(F)(F)F.O=C(O)C(F)(F)F (centres unmarked) [Compound 12] | 64 | 64 | 32 | 64 | 128 | 128 | >128 | 64 | >128 | >128 | >128 | >128 | 128
Gentamicin [reference compound] | 1 | 2 | 0.25 | 32 | 4 | 1 | 128 | 8 | 8 | 128 | >512 | 128 | 0.25
CC(C)(C)c1ccc(COCC2OC(OC3C(OCc4ccc(C(C)(C)C)cc4)C(N)CC(N)C3OC3OC(CN)C(OCc4ccc(C(C)(C)C)cc4)C(OCc4ccc(C(C)(C)C)cc4)C3N)C(OCc3ccc(C(C)(C)C)cc3)C2OC2OC(CN)C(OCc3ccc(C(C)(C)C)cc3)C(OCc3ccc(C(C)(C)C)cc3)C2N)cc1.O=C(O)C(F)(F)F.O=C(O)C(F)(F)F.O=C(O)C(F)(F)F.O=C(O)C(F)(F)F.O=C(O)C(F)(F)F.O=C(O)C(F)(F)F (centres unmarked) [Compound 13] | 128 | 128 | 64 | 64 | 256 | 128 | 128 | 128 | 256 | 128 | >128 | >128 | >128
